The results in this text go back to article PMC8846360, “Structural Optimization and Improving Antitumor Potential of Moreollic Acid from Gamboge” (Molecules, 2022).

The subject of assay [1] is DLD1 cells. The assay can be described thus: Flow cytometric cell-cycle distribution, DLD1. Type of assay: cell-based, human. To be noted: 6 h after nocodazole (400 ng/mL), flow cytometry. How it is done:
(§1) Additionally, flow cytometric analyses were performed to determine cell-cycle distribution, where 400 ng/mL of nocodazole was used to synchronize cells in G2/M phase.
Figure 3 TH12-10 blocks S phase entry. (A) Immunoblot analysis of Cyclin D1, CDK4, CDK6, and p-Rb in SW620 and DLD1 cells treated with indicated concentrations of TH12-10 for 48 h. (B) Densitometry analysis of indicated proteins as described in (A) was performed using Image J software. […] (D) Quantitative analysis of DLD1 cells in G1 phase as described in (C). All data are presented as means ± SD of three independent experiments. * p < 0.05, ** p < 0.01, *** p < 0.001. N.S., not significant. Differences were tested using one-way ANOVA (B) or the unpaired t-test with Welch’s correction (D).
In general terms: Flow cytometry measures light scatter and fluorescence of single cells or particles in a stream.

For assay [2], the system named is human non-small-cell lung cancer cells (A549). Briefly: CCK-8 cell proliferation assay, A549. To be noted: 48 h, read-out: Inhibition rates (%) A549. Type of assay: cell-based. The procedure:
(§2) Initially, the target compounds were evaluated for antiproliferative activities against human non-small-cell lung cancer cells (A549), human breast cancer cells (MDA-MB-231), human esophageal cancer cells (KYSE30), and human colon cancer cells (HCT-116) at 5 μM. All of them were tested by the CCK-8 assay using 5-Fu as the positive control.
(§3) To investigate the effects of compounds on tumor cells’ proliferation, the cell proliferation assay was performed using the Cell Counting Kit-8 (#40203ES60, Yeasen, Shanghai, China). In brief, cells were seeded in a 96-well plate at 3 × 10^3 cells per well and cultured overnight. Then, the medium was replaced with fresh DMEM medium containing various concentrations of compounds or vehicle. After 48 h of incubation, the medium was exchanged with 100 μL of FBS-free DMEM medium supplemented with 10 μL of CCK8 added to each well and incubated at 37 °C for another 2 h. Absorbance at 450 nm was measured with a microplate reader (Thermo). The experiments were performed in triplicate. The mean ± SD values presented in the figures were calculated from three independent experiments. Comparisons between groups were evaluated using GraphPad Prism version 7.0 software. p < 0.05 was considered statistically significant.
(In general: Tetrazolium assays rely on reduction of a dye to a coloured formazan, in cell work by metabolically active cells.)

Assay [3] has as its system human colon cancer cells (SW620). Briefly: CCK-8 cell proliferation assay, SW620. It is filed as cell-based. The note with it: SW-620, CCK-8, 48 h, read-out: IC50 ± SD SW620. How it is done: (§4) To further assess the antitumor activities of synthesized compounds against human colon cancer cells, the effects of each synthesized compound on the viability of two additional human colon cancer cells (SW620, DLD1) were evaluated, and normal human colonic epithelial cells (NCM460) were used as a control. It is obvious that all the synthesized compounds display potential antitumor activities against HCT116, DLD1, and SW620 cells. […] In addition, for SW620, the activities of most optimized compounds were slightly stronger than that of 5-Fu.
(§5) HCT116, SW620, and DLD1 were purchased from American Type Culture Collection (ATCC). SW620 and DLD1 were cultured in Dulbecco’s Modified Eagles medium (Thermo), and HCT116 was cultured in McCoy’s 5A medium (Thermo). All media were supplemented with 10% fetal bovine serum (Thermo) and 1% penicillin/streptomycin. All the cells were passaged at approximately 80% confluency. Cells were tested for mycoplasma every two months, and only mycoplasma-negative cells were used
as §3

The subject of assay [4] is normal human colonic epithelial cells (NCM460). Briefly: CCK-8 cell proliferation assay, NCM460. It is filed as cell-based. The note with it: NCM460, CCK-8, 48 h, normal colonic epithelial cells, read-out: IC50 ± SD NCM460. How it is done: as §4, §3
Assay [5] has as its system CyclinD1, CDK6, CDK4, p-Rb in NCM460 cells. Briefly: Immunoblot of cell-cycle regulatory proteins, NCM460. Type of assay: cell-based, human. To be noted: indicated concentrations, 48 h. The procedure: as §1
(§6) When 80% confluency was reached, cells were seeded into a 6-well plate at 3 × 10^6 cells per well and allowed to attach overnight. Then, the cells were treated with different concentrations of TH12-10 or vehicle for 48 h. Cells were lysed in RIPA buffer (#89900, Thermo, Waltham, MA, USA) supplemented with protease inhibitor cocktail (#B14002, Bimake, Houston, TX, USA) on ice for 30 min and centrifuged at 12,000 rpm for 10 min at 4 °C. Protein concentration was determined by the BCA kit and equal amounts of lysates were separated by SDS-polyacrylamide gels, and transferred to nitrocellulose membranes (#HATF00010, Millipore, Burlington, MA, USA). Then, the membranes were blocked with 5% milk in TBST for 1 h and probed with the indicated antibodies. […]
Figure 4 The contribution of TH12-10 to the cell cycle. […] (D) Quantitative analysis of NCM460 cells in G1 phase as described in (C). […]

The test system of assay [6] is CyclinD1, CDK6, CDK4, p-Rb in SW620 cells. The assay can be described thus: Immunoblot of cell-cycle regulatory proteins, SW620. The note with it: indicated concentrations, 48 h. It is filed as cell-based, human. How it is done: as §1, §6
(§7) Figure 3 TH12-10 blocks S phase entry. […] (D) Quantitative analysis of DLD1 cells in G1 phase as described in (C). […]
In general terms: Immunoblotting shows a protein as a band on a membrane.

Assay [7] concerns CyclinD1, CDK6, CDK4, p-Rb in DLD1 cells. Briefly: Immunoblot of cell-cycle regulatory proteins, DLD1. Type of assay: cell-based, human. The note with it: indicated concentrations, 48 h. The procedure: as §1, §6, §7
Assay [8] relates to human breast cancer cells (MDA-MB-231). Briefly: CCK-8 cell proliferation assay, MDA-MB-231. Type of assay: cell-based. The note with it: 48 h, read-out: Inhibition rates (%) MDA-MB-231. The procedure: as §2, §3
Assay [9] concerns human colon cancer cells (DLD1). The assay can be described thus: CCK-8 cell proliferation assay, DLD1. Type of assay: cell-based. The note with it: DLD-1, CCK-8, 48 h, read-out: IC50 ± SD DLD1. How it is done:
as §4, §5, §3

For assay [10], the system named is human colon cancer cells (HCT-116). The assay can be described thus: CCK-8 cell proliferation assay, HCT-116. Type of assay: cell-based. The procedure: as §2, §4, §5, §3
The subject of assay [11] is human esophageal cancer cells (KYSE30). Briefly: CCK-8 cell proliferation assay, KYSE30. Type of assay: cell-based. To be noted: KYSE-30, 48 h, read-out: Inhibition rates (%) KYSE30. How it is done: as §2, §3

Turning to `COC1C2CC3C(C)(C)OC(CC=C(C)C(=O)N4CCS(=O)(=O)CC4)(C2=O)C32Oc3c(CC=C(C)C)c4c(c(O)c3C(=O)C12)C=CC(C)(C)O4` (stereo not drawn) [TH12-10], the “percentage of cells in the G1 phase vs blank control” value in assay [1] is “significantly higher”. Moreover, the inhibition at 5 µM was 6.85 ± 2.16% in [2]; 8.09 ± 0.28% in assay [8]; 88.1 ± 2.78% in [10] (HCT-116, 5 μM, CCK-8, 48 h, read-out: Inhibition rates (%) HCT-116); 3.65 ± 2.44% in assay [11]. The IC50 in [3] turned out to be 790 ± 120 nM; in [4], 4080 ± 110 nM; in assay [9], 1100 ± 190 nM; in assay [10] (HCT-116, CCK-8, 48 h, read-out: IC50 ± SD HCT116) it was 830 ± 100 nM. For the same molecule, the “expression of CyclinD1, CDK6, CDK4 and p-Rb” value was “no significant change” in assay [5], “significantly decreased” in assay [6] and “significantly decreased” in [7].

Broadly, the inhibition is the relative decrease from the control value, in per cent. Usually IC50 stands for the concentration needed to halve the response being measured.
